From patent US10744205B2, “Antibody drug conjugates of kinesin spindel protein (KSP) inhibitors with anti-CD123-antibodies” (Bayer Pharma Aktiengesellschaft, priority 2015, dated 2020)

Assays:
[1] = test system: KPL4; test: Cytotoxicity of metabolites, MTT assay, KPL4; type: cell-based
[2] = test system: NCI-H292: human mucoepidermoid lung carcinoma cells; test: Cytotoxicity of metabolites, MTT assay, NCI-H292; type: cell-based; settings: growth inhibition, 96 h incubation
Method: The analysis of the cytotoxic effects of the anti-CD123 ADCs and the corresponding metabolites was carried out with various cell lines:
NCI-H292: human mucoepidermoid lung carcinoma cells, ATCC-CRL-1848, standard medium: RPMI 1640 (Biochrom; # FG1215, stab. glutamine)+10% FCS (Biochrom; # S0415).
The cells were cultivated by the standard method as stated by the American Tissue Culture Collection (ATCC) or the Leibniz-Institut DSMZ-Deutsche Sammlung von Mikroorganismen und Zellkulturen GmbH (DSMZ) for the cell lines in question.
The cells were cultivated according to the standard method using the growth media listed under C-1. The test is carried out by detaching the cells with a solution of Accutase in PBS (Biochrom AG # L2143), pelleting, resuspending in culture medium, counting and sowing into a 96-well culture plate with white bottom (Costar #3610) (NCI H292: 2500 cells/well; MOLM-13: 2000 cells/well; THP-1: 8000 cells/well; KG-1: 5000 cells/well in a total volume of 100 μl). The cells were then incubated in an incubator at 37° C. and 5% carbon dioxide. After 48 h, the medium was replaced.
The antibody drug conjugates or the metabolites in 10 μl of culture medium in concentrations from 10^−5M to 10^−13M were then pipetted to the cells (in triplicate), and the assay was then incubated in an incubator at 37° C. and 5% carbon dioxide. […] To this end, the MTT reagent was incubated with the cells for 4 h, followed by lysis of the cells overnight by addition of the detergent. The dye formed was detected at 570 nm (Infinite M1000 pro, Tecan). The measured data were used to calculate the IC50 of the growth inhibition using the DRC (dose response curve).
The proliferation of cells which were not treated with test substance but were otherwise identically treated was defined as the 100% figure.
Table 2 below lists the IC50 values of representative working examples from the assay described and the corresponding cytotoxicity data (MTT assay).

[3] = Cell permeability, flux assay using Caco-2 cells; type: in vitro ADME; settings: human
[4] = target: T1, motor domain of the human kinesin spindle protein KSP/Eg5 (Homo sapiens, UniProt P52732); test: Inhibition of the kinesin spindle protein KSP/Eg5 (ATPase activity, malachite green); type: biochemical; settings: 10 nM KSP/Eg5, microtubuli, 500 μM ATP, 2 h at RT
T1 construct: The motor domain of the human kinesin spindle protein KSP/Eg5; purchased tebu-bio/Cytoskeleton Inc 027EG01-XL
T1 sequence (P52732 18-359 limits assumed): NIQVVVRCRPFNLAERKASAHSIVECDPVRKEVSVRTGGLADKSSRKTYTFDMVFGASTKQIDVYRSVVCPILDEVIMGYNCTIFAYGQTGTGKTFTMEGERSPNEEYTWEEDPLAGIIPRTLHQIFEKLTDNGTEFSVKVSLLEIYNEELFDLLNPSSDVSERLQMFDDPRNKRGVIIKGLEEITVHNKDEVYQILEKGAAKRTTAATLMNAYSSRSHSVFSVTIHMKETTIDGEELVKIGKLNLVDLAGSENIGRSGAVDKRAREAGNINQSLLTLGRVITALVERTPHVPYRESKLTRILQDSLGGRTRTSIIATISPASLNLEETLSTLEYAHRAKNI
Method: C-1b Determination of the Inhibition of the Kinesin Spindle Protein KSP/Eg5 by Selected Examples
The motor domain of the human kinesin spindle protein KSP/Eg5 (tebu-bio/Cytoskeleton Inc, No. 027EG01-XL) was incubated in a concentration of 10 nM with microtubuli (bovine or porcine, tebu-bio/Cytoskeleton Inc) stabilized with 50 μg/ml taxol (Sigma No. T7191-5MG) for 5 min at RT in 15 mM PIPES, pH 6.8 (5 mM MgCl2 and 10 mM DTT, Sigma). […] Incubation was at RT for 2 h. ATPase activity was detected by detecting the inorganic phosphate formed using malachite green (Biomol). […] The positive controls used were monastrol (Sigma, M8515-1 mg) and ispinesib (AdooQ Bioscience A10486). The individual data of the dose-activity curve are eight-fold determinations. The IC50 values are means of two independent experiments.

[5] = test system: Caco-2 cells; test: Cell permeability, flux assay using Caco-2 cells; type: in vitro ADME; settings: Caco-2, B to A, 2 hours

| Molecule | IC50 ([1]; KPL4, growth inhibition) [nM] | IC50 ([2]; Homo sapiens, NCI-H292, 96 h) [nM] | IC50 ([1]; growth inhibition) [nM] | IC50 [2] [nM] | further results |
| --- | --- | --- | --- | --- | --- |
| CC(C)(C)[C@H](c1cc(-c2cc(F)ccc2F)cn1Cc1ccccc1)N(CC[C@H](N)C(=O)NCCNC(=O)CN1C(=O)CC(SC[C@H](N)C(=O)O)C1=O)C(=O)CO (stereo partly drawn) [Example M1, S-[1-(2-{[2-({(2S)-2-Amino-4-[{(1R)-1-[1-benzyl-4-(2,5-difluorophenyl)-1H-pyrrol-2-yl]-2,2-dimethylpropyl}(glycoloyl)amino]butanoyl}amino)ethyl]amino}-2-oxoethyl)-2,5-dioxopyrrolidin-3-yl]-L-cysteine/trifluoroacetic acid (1:1)] | ≥ 500 | ≥ 500 |  |  |  |
| CC(C)(C)[C@H](c1cc(-c2cc(F)ccc2F)cn1Cc1ccccc1)N(CCCN)C(=O)CSC[C@H](NC(=O)CCOCCOCCOCCOCCNC(=O)CNC(=O)[C@H](CC(=O)O)SC[C@H](N)C(=O)O)C(=O)O.O=C(O)C(F)(F)F.O=C(O)C(F)(F)F [Example M21, (2R,24S,27R)-27-Amino-2-[({2-[(3-aminopropyl){(1R)-1-[1-benzyl-4-(2,5-difluorophenyl)-1H-pyrrol-2-yl]-2,2-dimethylpropyl}amino]-2-oxoethyl}sulphanyl)methyl]-24-(carboxymethyl)-4,20,23-trioxo-7,10,13,16-tetraoxa-25-thia-3,19,22-triazaoctacosane-1,28-dioic acid trifluoroacetic acid (1:2)] |  |  |  |  | Papp B→A at 2 h ([3]; Caco-2, B to A, 2 hours): 0.05 ×10⁻⁶ cm/s; efflux ratio at 2 h ([3]; Caco-2, ratio of Papp (B-A) to Papp (A-B)): 1.5; IC50 [4]: 2.31 nM |
| CC(C)(C)[C@H](c1cc(-c2cc(F)ccc2F)cn1Cc1ccccc1)N(CC[C@H](N)C(=O)NCCC(=O)N[C@@H](CCC(=O)O)C(=O)O)C(=O)CO [Example M23, N-{(2S)-2-Amino-4-[{(1R)-1-[1-benzyl-4-(2,5-difluorophenyl)-1H-pyrrol-2-yl]-2,2-dimethylpropyl}(glycoloyl)amino]butanoyl}-beta-alanyl-L-glutamic acid/trifluoroacetic acid (1:1)] | ≥ 500 | ≥ 500 |  |  |  |
| CC(C)(C)[C@H](c1cc(-c2cc(F)ccc2F)cn1Cc1ccccc1)N(CC[C@H](N)C(=O)NCCC(=O)N[C@H](CCC(=O)O)C(=O)O)C(=O)CO [Example M24, N-{(2S)-2-Amino-4-[{(1R)-1-[1-benzyl-4-(2,5-difluorophenyl)-1H-pyrrol-2-yl]-2,2-dimethylpropyl}(glycoloyl)amino]butanoyl}-beta-alanyl-D-glutamic acid/trifluoroacetic acid (1:1)] | ≥ 500 |  |  |  |  |
| (1R,4R,27R,33R)-1-Amino-32-(3-aminopropyl)-33-[1-benzyl-4-(2,5-difluorophenyl)-1H-pyrrol-2-yl]-34,34-dimethyl-6,9,25,31-tetraoxo-13,16,19,22-tetraoxa-3,29-dithia-7,10,26,32-tetraazapentatriacontane-1,4,27-tricarboxylic acid/trifluoroacetic acid (1:2) [Example M20] |  |  | 213 | 149 |  |
| N-{(2S)-2-Amino-4-[{(1R)-1-[1-benzyl-4-(2,5-difluorophenyl)-1H-pyrrol-2-yl]-2,2-dimethyl propyl}(glycoloyl)amino]butanoyl}-L-glutamic acid/trifluoroacetic acid (1:1) [Example M25] |  |  | ≥ 500 | ≥ 500 | Papp (B-A) [5]: 0.81 ×10⁻⁶ cm/s |
